Experimental data taken from a melting point compilation (Tetko et al.; mined from patent text by program, amines drawn as free bases though some values may be those of a salt).

Row | SMILES | melting point
1 | CCNC(=O)Nc1ccc(-c2sc3c(c2CN(C)CCC(=O)NCCOC)c(=O)n(-c2ccccc2)c(=O)n3Cc2c(F)cccc2F)cc1 | 240 to 244 °C
2 | Cc1ccc2ccc(C#N)cc2c1 | 134 to 136 °C
3 | O=c1[nH]c(=O)n(C2OC(CO)C(O)C2F)cc1I (stereo not given) | 216 to 217 °C
4 | O=C(O)CCc1cn(Cc2ccc(OCc3csc(-c4ccccc4)n3)cc2)nc1-c1ccccc1 | 132 to 133 °C
5 | O=C(Nc1cccc(C(F)(F)F)c1)c1cccc2cc(Oc3cc(COCc4ccccc4)ncn3)ccc12 | 123 to 124 °C
6 | O=C1CCC2=C(CCc3cc(Cl)c(Cl)cc32)N1 | 260 to 261 °C
7 | CCOC(=O)C1=NN(c2cccc3ccccc23)C(C(=O)OCC)=NN1c1ccccc1 | 124 to 125 °C
8 | CCCC1=C(c2ccc(F)c(F)c2)C(=NO)CC1 | 136 to 137 °C
9 | CCCCC1=NC2(CCCC2)C(=O)N1Cc1ccc(-c2ccccc2S(=O)(=O)Nc2onc(C)c2C)c(CC(C)C)c1 | 58 to 61 °C
10 | CS(=O)c1nnc(-c2ccc3ncn(-c4ccc(OC(F)F)cc4)c3c2)o1 (stereo not given) | 135 to 136 °C
11 | CNCC(O)c1ccc(Br)cc1 (stereo not given) | 91.5 to 93.7 °C
12 | COc1ccc(/C=C/c2c(Cl)cncc2Cl)cc1OC1CCCC1 | 99 to 101 °C
13 | CC(=Cc1cccc(O)c1)[N+](=O)[O-] | 96 to 98 °C
14 | O=C(NCc1ccccc1)c1ccccc1-c1ccccc1CNS(=O)(=O)c1cccc(F)c1 | 147 °C
15 | CC(C)c1[nH]n(-c2c(Cl)cc(Cl)cc2Cl)c2nc(C(O)c3ccccc3)nc(=O)c1-2 (stereo not given) | 246 to 248 °C
16 | CO[C@@H]1c2ccn3c(C)c(C)nc3c2N[C@H](c2ccccc2)[C@H]1OC=O | 152 to 153 °C
17 | C=C(C#N)CN1CCC(C(=O)O)CC1 | 109 to 111 °C
18 | FC(F)(F)c1ccc(-c2cc(C(F)(F)F)n3cnc(-c4ccncc4)c3n2)cc1 | 240 °C
19 | Cc1noc(NC(=O)N2CCN(c3nc(-c4ccc(F)cc4F)cs3)CC2)c1C | 166 to 167 °C

Row | SMILES | melting point
20 | CN1C(=O)C(c2ccc(OC(F)F)cc2)(c2cccc(CCCCC#N)c2)N=C1N (stereo not given) | 65 °C
21 | COc1cccc(N(C(=O)c2ccc(-c3cccc(C)c3)s2)C2CC2)c1 | 68 °C
22 | COc1ccc(Cn2cnc3c(=O)[nH]c(N)nc32)cc1 | > 300 °C
23 | COc1ccc(CCN(C(C)=O)c2c(C)c(C)c3c(c2C)C(c2ccc(C(C)C)cc2)C(C)(C)O3)cc1 (stereo not given) | 134 to 136 °C
24 | Cc1cc(-n2c(=O)[nH]c3ccccc32)cc2c1NC(=O)CC2C (stereo not given) | 250 to 254 °C
25 | COC(=O)C(Oc1nc(OC)cc(OC)n1)C(OC)(c1ccccc1)c1ccccc1 (stereo not given) | 81 °C
26 | O=C(Cc1ccccc1)NCCc1ccccc1 | 91 to 92 °C
27 | COC1c2ccccc2C(=O)N1CCN1CCC(Cc2c[nH]c3ccc(F)cc23)CC1 (racemic) | 175 °C
28 | CC(=O)N1CCC(N2C(=O)CN=C(c3ccccc3)c3ccccc32)CC1 | 208 to 209 °C
29 | COCCN1CCC(O)(c2cc(F)cc(F)c2)C1 (single isomer, unassigned; (-)) | 130 to 131 °C
30 | [N-]=[N+]=Nc1cccc2c1C(=O)N(CCCCCC(=O)Cl)C2=O | 68 to 69 °C
31 | O=C(Nc1c([N+](=O)[O-])cnn1-c1c(Cl)cc(C(F)(F)F)c(Cl)c1Cl)C(F)F | 146 to 151 °C
32 | Cc1ccc2[nH]c3c(N)nn(C)c3c(=O)c2c1 | > 300 °C
33 | CCCCCCCCCCCCc1ccccc1C(CC(=O)O)SCCC(=O)O (stereo not given) | 55 to 56 °C
34 | O=C1C(Cl)=C(CC2CCCC(C(F)(F)F)C2)C(=O)c2ccccc21 (stereo not given) | 104 °C
35 | CC(N)CC(=O)Nc1c(OCC(F)(F)F)cccc1-c1ccccn1 (stereo not given) | 135 to 137 °C
36 | NC(=O)N1c2ccccc2CC(=NO)c2ccccc21 | 230 to 232 °C
37 | CN1C(=O)CC[C@]2(C)c3ccc(Sc4nc5ccccc5s4)cc3CC[C@@H]12 | 188 to 189 °C
38 | CCc1c(C(C)C)cc(C(C)C)c(C(C)O)c1-c1ccc(F)cc1 (single isomer, unassigned; (+)) | 143 to 145 °C

Row | SMILES | melting point
39 | O=C1NCC2=C1CN=C(c1ccccc1Cl)c1cc(Cl)ccc12 | 243 to 244 °C
40 | O=C(Oc1ccc(C(=C2CCCCC2)c2ccc(OC(=O)c3ccccc3)c(OC(=O)c3ccccc3)c2)cc1OC(=O)c1ccccc1)c1ccccc1 | 176 °C
41 | CCOc1ccc([N+](=O)[O-])cc1-c1nc2cccnc2c(=O)[nH]1 | 251 to 254 °C
42 | Cc1cc(OC(C)c2ccc(-c3ccccc3-c3nnn(C(c4ccccc4)(c4ccccc4)c4ccccc4)n3)cc2)c2ccccc2n1 (stereo not given) | 160 to 161 °C
43 | CC(=O)NC1(c2ccc(CN3CCN(c4cccc(F)n4)CC3)cc2)CC1 | 135 to 136 °C
44 | COc1cc(OCc2ccccn2)ccc1/C=C/c1cc(/C=C/c2cccc3[nH]ccc23)n[nH]1 | 108 to 113 °C
45 | c1ccc2c(c1)Cc1cccnc1O2 | 87 to 88 °C
46 | CC(=O)N(C)c1cccc(-c2ccnc3c(Cl)cnn23)c1 | 163 to 165 °C
47 | O=C(N[C@@H]1C(=O)N[C@@H]1C=Cc1ccccc1)OCc1ccccc1 | 201 to 204 °C
48 | Cc1ccc(-n2nc(C(C)(C)C)cc2NC(=O)NCc2ccccc2Oc2cc(N3CCOCC3)ncn2)cc1 | 128 °C
49 | CCCCc1nc2cccc(C(=O)OC)c2n1Cc1ccc(-c2ncncc2C#N)cc1 | 131 to 133 °C
50 | CN1CCN(C2=C3CN(C)CC34CC(=CC#N)C=CC4=NC=C2)CC1 (stereo not given) | 178 to 180 °C
51 | O=C(O)COc1ccc2c(c1)CCc1sc(SC(c3ccccc3)c3ccccc3)nc1-2 | 193 to 195 °C
52 | CC(C)(C)OC(=O)N1CCN(C(=O)C2C3CCC(O3)C2C(=O)O)CC1 (stereo not given) | 206 to 208 °C
53 | CC(C)(C)Nc1ccccc1C(CCC1CCCCC1)C(=O)c1cccc(Cl)c1 (stereo not given) | 150 to 152 °C
54 | NCC(=O)N1CCN(C(=O)c2cc(C(F)(F)F)cc(C(F)(F)F)c2)[C@H](Cc2c[nH]c3ccccc23)C1 | 110 to 120 °C
55 | OC1CSC(Oc2ccc(-c3ccncc3)nc2F)C(O)C1O (stereo not given) | 196 °C
56 | C=CCn1c(NCCOc2ccccc2)nc(N2CCc3ccccc3CC2)c(C#N)c1=O | 157 to 160 °C

The remaining lines, values ahead:

Row | melting point | SMILES
57 | 117 to 118 °C | Cc1ccc(S(=O)(=O)c2ccccc2)nc1
58 | 151 °C | COCCNC(=O)C1=C(C(=O)Nc2cc(OC3CCCC3)c(Cl)cc2F)CCCC1
59 | 128 °C | CCOc1cc(-n2c(=O)cc(C(F)(F)F)n(C)c2=O)c(F)cc1Br
60 | 100 °C | CCOC(=O)c1ccccc1NCC(=O)N(C)c1ccccc1
61 | 136 to 138 °C | CC(C)C[C@H](NC(=O)[C@@H](O)[C@@H](Cc1ccc(S(C)(=O)=O)cc1)NC(=O)OCc1ccccc1)C(=O)OCc1ccccc1
62 | 96 to 100 °C | COC(=O)COc1cccc(CCN(C)CCCC(C#N)(c2ccc(OC)c(OC)c2)C(C)C)c1 (stereo not given)
63 | 144 to 145 °C | COc1cccc(CC(=O)O)c1OCCCc1cn(-c2ccc(C#N)cn2)nc1C(C)C
64 | 203 to 205 °C | COc1ccc(-c2cc3nccnc3[nH]2)cc1OCCO
65 | 172 to 174 °C | CC(C)(C)OC(=O)NCCNC(=O)C1CCN(C(=O)OC(C)(C)C)CC1
66 | 154 to 156 °C | Cc1cc(NC(=O)c2c(Cl)cccc2Cl)c2nccc(NNC(C)C)c2c1
67 | 85 to 86 °C | CCCCCCCCc1cc2c(cc1/C(C)=C/c1ccc(C(=O)OC)cc1)C(C)(C)CCCS2(=O)=O
68 | 152 to 153 °C | CC(=O)N(c1ccc(O)cc1)C(C)C
69 | 178 to 181 °C | CN1Cc2ccccc2C(=O)c2c(CC(=O)O)cccc21
70 | 99 to 101 °C | COC(=O)CSc1c(C)cc(C(O)(C(F)(F)F)C(F)(F)F)cc1C
71 | 102 to 103 °C | CC1=C(C)C(F)N(c2ccc(Cl)c(Cl)c2)C1=O (stereo not given)
72 | 202 to 205 °C | CCn1c(C(C#N)c2cc(C)cc(C#N)c2)c(C(C)C)c(=O)n(COC)c1=O (stereo not given)
73 | 104 to 106 °C | CC(CCC(=O)O)c1ccc(OCc2ccccc2C(=O)O)cc1 (stereo not given)
74 | 205 to 206 °C | CC(=O)Oc1cc(C(C)=O)c(O)cc1NS(C)(=O)=O
75 | 120 to 122 °C | O=S(=O)(Nc1cccnc1Cl)C(F)(F)F
76 | 194 to 196 °C | CC(=O)c1cccc(Nc2cc(C)nc(N)n2)c1

Row | melting point | SMILES
77 | 146 to 149 °C | CCOC(=O)c1ccc(OC(F)F)cc1S(=O)(=O)NC(=O)Nc1nc(OC)cc(OC)n1
78 | 34.5 to 35 °C | CC1(C)CCC(C(=O)COS(=O)(=O)c2ccccc2)CC1
79 | 134 to 136 °C | CS(=O)(=O)c1ccc(-c2cc(C(=O)CCCO[N+](=O)[O-])nn2-c2ccc(F)cc2)cc1
80 | 128 to 129 °C | COc1cccc(CCOc2cccc(-c3cccc(C(=O)NCCNC(=O)OC(C)(C)C)c3)n2)c1
81 | 183 to 184 °C | CCc1cn(C2CC(O)C(CNC(=O)C(C)S(=O)(=O)c3ccc(Cl)cc3Cl)O2)c(=O)[nH]c1=O (mixture of isomers)
82 | 163 to 164 °C | CCOC(=O)C1=C(C)NC(CO)=C(C(=O)OCC)C1c1ccccc1/C=C/C(=O)OC(C)(C)C (stereo not given)
83 | 210 to 213 °C | Cc1cccc(C)c1N1C(=O)c2ccc(C(=O)O)cc2C1=O
84 | 160 to 162 °C | COC(=O)CCC(=O)c1ccc(N)cc1
85 | 147 to 149 °C | COc1ccc(CC2SC(=O)NC2=O)cc1NC(=O)Cc1ccc(C(F)(F)F)cc1 (stereo not given)
86 | 112 to 113 °C | CCn1nnn(-c2cc(OCOC)c(Cl)cc2Cl)c1=O
87 | 193 to 194 °C | CCCCc1nc2c(N)nc3cc(/C=C/C(=O)OC)ccc3c2n1CC(C)C
88 | 179 °C | O=C(NO)c1cccnc1Cl
89 | 89.5 to 90.5 °C | CCCCOc1cc(/C=C/C(=O)NS(=O)(=O)CCC(C)C)n(Cc2ccc(C(F)(F)F)cc2Cl)n1
90 | 165 to 166 °C | COc1c(C)cc(C)c(C2CC(=O)C=C(O)C2)c1C (stereo not given)
91 | 148 to 150 °C | COc1ccc(/C=C/S(=O)(=O)CS(=O)(=O)/C=C/c2ccc(OC)c(O)c2)cc1O
92 | 164 to 165 °C | CC(C)(C)c1ccc(C(=O)Nc2cc(Cl)c(N)cc2O)cc1
93 | 201 to 204 °C | N#Cc1ccc(N(Cc2ccc(OS(N)(=O)=O)c(Cl)c2)n2cnnc2)cc1-c1ccccc1
94 | 145 to 146 °C | Cc1ccc(C)c(NC(=O)CCl)c1C
95 | 136 °C | O=C(Nc1nc(C(Cl)(Cl)Cl)ns1)c1ccc(Cl)cc1Cl
